Measured values from patent US20100010034A1, “CRTH2 ANTAGONISTS” (priority 2006, published 2010).

Experiments:
CRTH2 receptor [1] = biological target: T1, CRTH2 receptor (Homo sapiens, UniProt Q9Y5Y4); test: CRTH2 Radioligand Binding assay ([3H]-PGD2 displacement, SPA); set-up: expressed in transfected cells; host or cells: HEK cell membranes; conditions: HEK cell membranes expressing the CRTH2 receptor, 1 nM [3H]-PGD2; Ki from IC50 by Cheng-Prusoff
T1 sequence (Q9Y5Y4 1-395): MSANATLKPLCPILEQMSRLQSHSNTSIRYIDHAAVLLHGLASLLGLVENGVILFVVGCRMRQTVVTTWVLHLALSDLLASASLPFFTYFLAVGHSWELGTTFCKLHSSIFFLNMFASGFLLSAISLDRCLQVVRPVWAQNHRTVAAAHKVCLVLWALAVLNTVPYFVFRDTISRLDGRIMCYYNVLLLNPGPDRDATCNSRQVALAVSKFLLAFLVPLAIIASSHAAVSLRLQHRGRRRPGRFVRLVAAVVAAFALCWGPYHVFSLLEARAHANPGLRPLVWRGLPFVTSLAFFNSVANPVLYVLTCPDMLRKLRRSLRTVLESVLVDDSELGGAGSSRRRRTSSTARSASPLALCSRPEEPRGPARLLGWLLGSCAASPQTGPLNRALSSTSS
Description: Radioligand Binding Assay
The receptor binding assay is performed in a final volume of 200 μL binding buffer [10 mM BES (pH 7.4), 1 mM EDTA, 10 mM manganese chloride, 0.01% BSA] and 1 nM [^3H]-PGD2 (Amersham Biosciences UK Ltd). Ligands are added in assay buffer containing a constant amount of DMSO (1% by volume). Total binding is determined using 1% by volume of DMSO in assay buffer and non-specific binding is determined using 10 μM of unlabeled PGD2 (Sigma). Human embryonic kidney (HEK) cell membranes (3.5 μg) expressing the CRTH2 receptor are incubated with 1.5 mg wheatgerm agglutinin SPA beads and 1 nM [^3H]-PGD2 (Amersham Biosciences UK Ltd) and the mixture incubated for 3 hours at room temperature. Bound [^3H]-PGD2 is detected using a Microbeta TRILUX liquid scintillation counter (Perkin Elmer). Compound IC50 value is determined using a 6-point dose response curve in duplicate with a semi-log compound dilution series. IC50 calculations are performed using Excel and XLfit (Microsoft), and this value is used to determine a Ki value for the test compound using the Cheng-Prusoff equation.

CRTH2 receptor [2] = biological target: T1, CRTH2 receptor; test: Calcium mobilisation (flux) functional assay; type: cell-based; set-up: expressed in transfected cells; conditions: CHO-K1 cells co-expressing CRTH2 receptor and Gα16; PGD2 agonist at EC80
Description: Calcium Mobilisation (Flux) Assay
Stable CHO-K1 cells co-expressing the CRTH2 receptor and the G-protein Gα16 are seeded (40,000 cells per well in a plating volume of 75 μL in F-12 Hams supplemented with 1% foetal bovine serum) into collagen-coated 96-well plates 24 hours prior to the assay. The cells are then loaded with a fluorescence-imaging plate reader (FLIPR) calcium kit dye (Calcium 3 kit, Molecular Devices Ltd) containing 5 mM final concentration of probenecid and incubated at 37° C. for 1 hour in a 5 % CO2 atmosphere. The fluorescence emission caused by intracellular calcium mobilization elicited by the PGD2 at the CRTH2 receptor is determined with a FLEXstation benchtop scanning and integrated fluid transfer workstation (Molecular Devices Ltd). To detect antagonists and determine compound IC50, compounds are pre-incubated at varying concentrations with the loaded cells for 15 minutes at 37° C., 5 % CO2, prior to the addition of the agonist at its EC80 value. Compounds and agonist are added in Hanks balanced salt solution containing 20 mM HEPES and 0.1% BSA). The fractional response values for each well are calculated by subtracting the basal response from the peak response. Results are calculated as the mean of triplicate wells using Excel and XLfit (Microsoft).

[3] = rats, exogenously applied agonist (Shirashi et al 2005); cited from earlier work

SMILES | Ki (CRTH2 receptor [1]) [nM] | IC50 (CRTH2 receptor [2]) [nM] | pulmonary eosinophilia [3]
Cc1c([C@@H](C)C(=O)O)c2ccc(F)cn2c1Sc1ccc(S(C)(=O)=O)cc1 [Example 4, (R)-2-[6-fluoro-3-(4-methanesulfonylphenylsulfanyl)-2-methylindolizin-1-yl]propionic acid] | 29 | – | –
Cc1c(CC(=O)O)c2cc(C#N)ccn2c1Sc1ccc(S(C)(=O)=O)cc1Cl [Example 9, [3-(2-chloro-4-methanesulfonylphenylsulfanyl)-7-cyano-2-methylindolizin-1-yl]acetic acid] | 2.9 | – | –
Cc1c(CC(=O)O)c2ccc(F)cn2c1Sc1ccc(S(C)(=O)=O)cc1F [Example 2, [6-fluoro-3-(2-fluoro-4-methanesulfonylphenylsulfanyl)-2-methylindolizin-1-yl]acetic acid] | 0.2 | 6.6 | –
Cc1c(CC(=O)O)c2ccc(C#N)cn2c1Cc1ccc2cc(F)ccc2n1 [Example 12, [6-cyano-3-(6-fluoroquinolin-2-ylmethyl)-2-methylindolizin-1-yl]acetic acid] | 7.2 | – | –
O=C(O)CCCCCCC1C(=O)NC(=O)N1CCC(O)C1CCCCC1 (stereo not drawn) [BW 245C] | – | – | no effect
Cc1c(CC(=O)O)c2ccc(F)cn2c1Sc1ccc(S(=O)(=O)NC2CC2)cc1 [Example 16, [3-(4-cyclopropylsulfamoylphenylsulfanyl)-6-fluoro-2-methylindolizin-1-yl]acetic acid] | 0.6 | 22 | –
CCS(=O)(=O)Nc1ccc(S(=O)(=O)c2c(C)c(CC(=O)O)c3ccc(F)cn23)cc1 [Example 7] | 47 | – | –
Cc1c([C@H](C)C(=O)O)c2ccc(F)cn2c1Sc1ccc(S(C)(=O)=O)cc1 [Example 6, (S)-2-[6-fluoro-3-(4-methanesulfonylphenylsulfanyl)-2-methylindolizin-1-yl]propionic acid] | 57 | – | –
Cc1c(CC(=O)O)c2cc(C#N)ccn2c1Cc1ccc(Cl)cc1 [Example 11, [3-(4-chlorobenzyl)-7-cyano-2-methylindolizin-1-yl]acetic acid] | 26 | – | –
O=C(O)CCC/C=C\C[C@@H]1[C@@H](/C=C/[C@@H](O)COc2ccc(I)cc2)[C@H]2CC[C@@H]1O2 [I-BOP] | – | – | no effect
Cc1c(CC(=O)O)c2ccc(C#N)cn2c1Cc1ccc(S(C)(=O)=O)cc1 [Example 10, [6-cyano-3-(4-methanesulfonylbenzyl)-2-methylindolizin-1-yl]acetic acid] | 1.7 | – | –
Cc1c(CC(=O)O)c2ccc(F)cn2c1Sc1ccc(S(C)(=O)=O)cc1C(F)(F)F [Example 3, [6-fluoro-3-(4-methanesulfonyl-2-trifluoromethylphenylsulfanyl)-2-methylindolizin-1-yl]acetic acid] | 0.9 | 11 | –

The next lines start with results.

Ki (CRTH2 receptor [1]) [nM] | IC50 (CRTH2 receptor [2]) [nM] | SMILES | pulmonary eosinophilia [3]
44 | – | COc1ccc(Sc2c(C)c(CC(=O)O)c3ccc(F)cn23)cc1 [Example 13, [6-fluoro-3-(4-methoxyphenylsulfanyl)-2-methylindolizin-1-yl]acetic acid] | –
0.4 | – | Cc1c(CC(=O)O)c2cc(Cl)c(F)cn2c1Sc1ccc(S(C)(=O)=O)cc1 [Example 8, [7-chloro-6-fluoro-3-(4-methanesulfonylphenylsulfanyl)-2-methylindolizin-1-yl]acetic acid] | –
0.8 | 8.9 | CCS(=O)(=O)c1ccc(Sc2c(C)c(CC(=O)O)c3ccc(F)cn23)cc1 [Example 5, [3-(4-ethanesulfonylphenylsulfanyl)+fluoro-2-methylindolizin-1-yl]acetic acid] | –
27 | – | Cc1c(CC(=O)O)c2ccc(F)cn2c1Sc1ccc(Cl)cc1Cl [Example 1, [3-(2,4dichlorophenylsulfanyl)-6-fluoro-2-methylindolizin-1-yl]acetic acid] | –
23 | – | COc1ccc(Sc2c(C)c(CC(=O)O)c3cc(Cl)c(F)cn23)cc1 [Example 14, [7-chloro-6-fluoro-3-(4-methoxyphenylsulfanyl)-2-methylindolizin-1-yl]acetic acid] | –
